Laboratory results taken from ChEMBL document CHEMBL6087405, “Discovery and optimization of anthraquinone derivatives containing substituted bisbenzyloxy groups as a novel scaffold damaged endoplasmic reticulum and against hepatocellular carcinoma cells” (Bioorg Med Chem, 2024).
Counter-ions that a name gives are not always drawn. Peptide text beside a SMILES is read from it. * marks the point of attachment. Cbz = O=C(OCc1ccccc1)*

Legend:
Huh-7 [1] = test: Antiproliferative activity against human Huh-7 cells measured after 48 hrs by MTT assay; type: functional, cell-based; conditions: Huh-7, 48 h
A549 = test: Antiproliferative activity against human A549 cells measured after 48 hrs by MTT assay; type: functional, cell-based; conditions: A549, 48 h
MDA-MB-231 = test: Antiproliferative activity against human MDA-MB-231 cells measured after 48 hrs by MTT assay; type: functional, cell-based; conditions: MDA-MB-231, 48 h
Huh-7 [2] = test: Induction of apoptosis in human Huh-7 cells assessed as viable cells at 20 uM measured after 48 hrs by Annexin V-PE staining based flow cytometry analysis (reference value: 93.69%); type: functional; conditions: read-out: Activity
Huh-7 [3] = test: Induction of apoptosis in human Huh-7 cells assessed as necrotic cells at 20 uM measured after 48 hrs by Annexin V-PE staining based flow cytometry analysis (reference value: 3.37%); type: functional
Huh-7 [4] = test: Induction of apoptosis in human Huh-7 cells assessed as early apoptotic cells at 20 uM measured after 48 hrs by Annexin V-PE staining based flow cytometry analysis (reference value: 0.88%); type: functional
Huh-7 [5] = test: Induction of apoptosis in human Huh-7 cells assessed as late apoptotic cells at 20 uM measured after 48 hrs by Annexin V-PE staining based flow cytometry analysis (reference value: 2.06%); type: functional

Row | SMILES | IC50 (Huh-7 [1]) [µM] | IC50 (A549) [µM] | IC50 (MDA-MB-231) [µM] | viability at 20 µM (Huh-7 [2]) [%] | Activity (Huh-7 [3]) [%] | Activity (Huh-7 [4]) [%] | Activity (Huh-7 [5]) [%]
1 | O=C(NCCCO)c1cc(OCc2ccc(Cl)cc2)c2c(c1)C(=O)c1cccc(OCc3ccc(Cl)cc3)c1C2=O | 5.87 | > 100 | 6.36 |  |  |  | 
2 | COc1ccc(COc2cccc3c2C(=O)c2c(OCc4ccc(OC)cc4)cc(C(=O)NCCCCO)cc2C3=O)cc1 | 0.34 | 5.04 | 0.86 |  |  |  | 
3 | Cc1ccc(COc2cccc3c2C(=O)c2c(OCc4ccc(C)cc4)cc(C(=O)NCCCO)cc2C3=O)cc1 | 3.75 | 5.79 | 1.15 |  |  |  | 
4 | COc1ccc(COc2cccc3c2C(=O)c2c(OCc4ccc(OC)cc4)cc(C(=O)NCCOCCO)cc2C3=O)cc1 | 9.24 | 17 | 18.5 |  |  |  | 
5 | O=C(NCCCCO)c1cc(OCc2ccc(Cl)cc2)c2c(c1)C(=O)c1cccc(OCc3ccc(Cl)cc3)c1C2=O | 20.9 | > 100 | 17.5 |  |  |  | 
6 | CNC(=O)c1cc(Oc2ccc(NC(=O)Nc3ccc(Cl)c(C(F)(F)F)c3)cc2)ccn1 [SORAFENIB] | 6.53 |  |  |  |  |  | 
7 | Cc1ccc(COc2cccc3c2C(=O)c2c(OCc4ccc(C)cc4)cc(C(=O)NCCOCCO)cc2C3=O)cc1 | 14.9 | > 100 | 6.14 |  |  |  | 
8 | Cc1ccc(COc2cccc3c2C(=O)c2c(OCc4ccc(C)cc4)cc(C(=O)NCCNCCO)cc2C3=O)cc1 | 1.96 | 4.76 | 0.91 |  |  |  | 
9 | O=C(NCCO)c1cc(OCc2ccc(Cl)cc2)c2c(c1)C(=O)c1cccc(OCc3ccc(Cl)cc3)c1C2=O | 4.79 | 21.1 | 3.46 |  |  |  | 
10 | Cc1ccc(COc2cccc3c2C(=O)c2c(OCc4ccc(C)cc4)cc(C(=O)NCCCCO)cc2C3=O)cc1 | 1.98 | 3.36 | 1.29 |  |  |  | 
11 | O=C(NCCOCCO)c1cc(OCc2ccccc2)c2c(c1)C(=O)c1cccc(OCc3ccccc3)c1C2=O | 64.4 | > 100 | 113 |  |  |  | 
12 | CC(C)[C@H](NC(=O)OCc1ccccc1)C(=O)N[C@@H](C)C(=O)N[C@@H](CC(=O)O)C(=O)O (Cbz-Val-Ala-Asp-OH) |  |  |  | 91.1 | 5.83 | 0.72 | 2.37
13 | O=C(NCCCCCO)c1cc(OCc2ccc(Cl)cc2)c2c(c1)C(=O)c1cccc(OCc3ccc(Cl)cc3)c1C2=O | 51 | > 100 | 16 |  |  |  | 
14 | O=C(NCCNCCO)c1cc(OCc2ccccc2)c2c(c1)C(=O)c1cccc(OCc3ccccc3)c1C2=O | 1.98 | 5.66 | 1.27 |  |  |  | 
15 | COc1ccc(COc2cccc3c2C(=O)c2c(OCc4ccc(OC)cc4)cc(C(=O)NCCCO)cc2C3=O)cc1 | 1.69 | 3.55 | 1.94 |  |  |  | 
16 | COc1ccc(COc2cccc3c2C(=O)c2c(OCc4ccc(OC)cc4)cc(C(=O)NCCO)cc2C3=O)cc1 | 2.71 | 4.68 | 2.45 |  |  |  | 
17 | Cc1ccc(COc2cccc3c2C(=O)c2c(OCc4ccc(C)cc4)cc(C(=O)NCCO)cc2C3=O)cc1 | 4.37 | 13.1 | 2.81 |  |  |  | 
18 | O=C(NCCCCCCO)c1cc(OCc2ccccc2)c2c(c1)C(=O)c1cccc(OCc3ccccc3)c1C2=O | 8.87 | 62.5 | 2.82 |  |  |  | 
19 | O=C(O)c1cc(O)c2c(c1)C(=O)c1cccc(O)c1C2=O [RHEIN] | > 100 | > 100 | > 100 |  |  |  | 
20 | O=C(NCCCCCCO)c1cc(OCc2ccc(Cl)cc2)c2c(c1)C(=O)c1cccc(OCc3ccc(Cl)cc3)c1C2=O | 36 | > 100 | 5.73 |  |  |  | 
21 | COc1cccc2c1C(=O)c1c(O)c3c(c(O)c1C2=O)C[C@@](O)(C(=O)CO)C[C@@H]3O[C@H]1C[C@H](N)[C@H](O)[C@H](C)O1 [DOXORUBICIN HYDROCHLORIDE] |  |  | 3.14 |  |  |  | 
22 | COc1ccc(COc2cccc3c2C(=O)c2c(OCc4ccc(OC)cc4)cc(C(=O)NCCCCCO)cc2C3=O)cc1 | 4.14 | 5 | 2.84 |  |  |  | 
23 | COc1ccc(COc2cccc3c2C(=O)c2c(OCc4ccc(OC)cc4)cc(C(=O)NCCCCCCO)cc2C3=O)cc1 | 1.13 | 3.49 | 0.97 |  |  |  | 
24 | O=C(NCCNCCO)c1cc(OCc2ccc(Cl)cc2)c2c(c1)C(=O)c1cccc(OCc3ccc(Cl)cc3)c1C2=O | 40.4 | > 100 | 2.24 |  |  |  | 
25 | Cc1ccc(COc2cccc3c2C(=O)c2c(OCc4ccc(C)cc4)cc(C(=O)NCCCCCCO)cc2C3=O)cc1 | 4.83 | 7.81 | 2.36 |  |  |  | 
26 | Cc1ccc(COc2cccc3c2C(=O)c2c(OCc4ccc(C)cc4)cc(C(=O)NCCCCCO)cc2C3=O)cc1 | 5.08 | 12.3 | 2.48 |  |  |  | 
27 | O=C(NCCOCCO)c1cc(OCc2ccc(Cl)cc2)c2c(c1)C(=O)c1cccc(OCc3ccc(Cl)cc3)c1C2=O | 50.1 | > 100 | 7.1 |  |  |  | 
